Calls of active or inactive are those of the source.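 Rule for the calls: active = 40% activation versus positive control reached by fitted dose-response curve at or below highest valid tested dose; inconclusive = poor fit quality, or flat fit with activation between 30% and 70%; inactive = the rest.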

A short description of the first test: Xi-linked GFP reactivating small molecules – imaging, 68-5-11 mouse fibroblasts, cherry-pick, dose response (AID 743394).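 Note: sensitizer 5-aza-dC present in the wells at 0.5 mM final.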 Particulars: 68-5-11 mouse fibroblast XiGFP reporter, % GFP-positive imaging, 3 d; at 19.5 µM (top of the series).
For the molecule `COC(=O)Cn1cc(/C=C2\C(=O)NC(=O)N(c3ccc(OC)cc3)C2=O)c2ccccc21`, the activation is 0.09% (inactive).

On to `Cc1cc(=O)oc2cc3c(cc12)CCCN3`, for which the activation is 0.76% (inactive). With `C[n+]1c(-c2ccccc2)c2cc(N)ccc2c2ccc(N)cc21`, the activation was 1.19% (inactive). Still for that read-out and setting: next, `C=CCn1c(O)c(C(C)=NCc2ccc3c(c2)OCO3)c(=O)[nH]c1=O`: 0.026% (inactive).

The test is the same for the next values; noted with them: 68-5-11 mouse fibroblast XiGFP reporter, % GFP-positive imaging, 3 d; at 19.5 µM (top of the series); cells co-treated with 5-aza-dC sensitizer; scaled: neutral wells 0, ellipticine wells 100.
Turning to `Cc1ccc2c(COC(=O)C34CC5CC(CC(C5)C3)C4)cc(=O)oc2c1`, the activation was -0.07% (inactive). On the same count and under the same terms, the result for `CCc1ccc(N2CC(C(=O)Nc3cc(C)on3)CC2=O)cc1` (stereo not drawn) reads -0.034% (inactive); that for `COC(=O)c1sc(-c2ccc(C(C)(C)C)cc2)cc1NC(=O)c1ccccc1C(=O)O`, -0.053% (inactive); that for `CC(C)N1CCc2c(sc(NC(=O)c3cc4cc([N+](=O)[O-])ccc4s3)c2C(N)=O)C1`, 7.43% (inactive). On the same count and under the same terms, the result for `CCCC(=O)OCCNc1cc(Sc2nccn2C)c2nonc2c1[N+](=O)[O-]` reads -0.034% (inactive). On the same count and under the same terms, the result for `COCCNC(=S)N(Cc1cccnc1)Cc1ccc(OC)c(OC)c1` reads 0.071% (inactive); that for `COc1ccc(OC)c(/C=C/c2ccc3cccc(O)c3n2)c1`, -0.024% (inactive). Consider `Cc1ccc(NCc2nnc(SCC(=O)NNC(=O)Cc3ccccc3)n2C)cc1`, for which the activation was 0.012% (inactive). On the same count and under the same terms, next, `COc1ccc(-c2ccc3[nH]c4c(c3c2)CCN2C(=O)[C@@H]([C@H](C)O)[C@@H](N(C)C(=O)Nc3ccc(F)cc3)C[C@@H]42)cc1`: 1.96% (inactive); `CCOC(=O)C1=C(C)NC(=S)NC1/C=C/c1ccccc1` (stereo not drawn): -0.024% (inactive); `CCN1C(=O)C(=Cc2cccc(OC)c2Oc2ccc([N+](=O)[O-])cc2[N+](=O)[O-])SC1=S`: -0.008% (inactive). On the same count and under the same terms, next, `Cc1nn(-c2ccccc2)c(C)c1N`: 0.313% (inactive); `Cc1ccccc1NC(=O)c1cn2c(nc3ccccc32)c(C#N)c1C`: 3.72% (inactive). Same read-out and setting: next, `CCOC(=O)c1sc(-c2ccc(F)cc2)cc1NC(=O)Nc1ccccc1OC`: 0.169% (inactive); `COc1ccc(C(=O)Nc2ccc3oc(-c4cccc(F)c4)nc3c2)cc1OC`: 0.002% (inactive). Turning to `CN(C)S(=O)(=O)c1cccc(C(=O)NCC2(N3CCOCC3)CCCCC2)c1`, the activation is -0.002% (inactive). Same read-out and setting: the result for `O=C(c1ccc(S(=O)(=O)c2ccc(Cl)cc2)cc1)N1CCOCC1` reads 0.117% (inactive); that for `CCN(CC)c1ccc(/C=C/C(=O)C2C(=O)C=C(C)OC2=O)cc1` (stereo not drawn), 3.58% (inactive); that for `CC(O)(c1ccccc1)c1nc(-c2ccncc2)cs1` (stereo not drawn), 0.105% (inactive).

Regarding `COc1cccc(-c2ccc(C3[C@@H]4CN(C(=O)C5CCCCC5)C[C@H]3N4)cc2)c1` (stereo partly drawn), the activation was 2.76% (inactive). As to `C[C@@H]1CN([C@@H](C)CO)C(=O)c2ccccc2-c2ccccc2CO[C@@H]1CN(C)C(=O)Nc1ccc2c(c1)OCO2`, the activation is 0.081% (inactive).

Turning to `O=C1C=CC(=O)C(CNc2ccc(C(=O)OCc3ccccc3)cc2)=C1`, the activation was -0.05% (inactive).

In the case of `C[C@@H]1CN([C@H](C)CO)C(=O)c2cc(NC(=O)Nc3ccc4c(c3)OCO4)ccc2O[C@@H](C)CCCCO[C@@H]1CN(C)C(=O)Cc1ccccc1`, the activation is 0.577% (inactive).

For `O=C(COC(=O)COc1cccc(C(F)(F)F)c1)NC1CCS(=O)(=O)C1` (stereo not drawn), the activation is -0.034% (inactive). For `CCCN(C)C[C@@H]1OCc2cnnn2CCCC(=O)N([C@H](C)CO)C[C@H]1C`, the activation is 1.19% (inactive). Take `C[C@@H]1C[C@H]2[C@@H]3CCC4=CC(=O)C=C[C@]4(C)[C@@]3(F)[C@@H](O)C[C@]2(C)[C@H]1C(=O)CO`: the activation is 0.179% (inactive). Same read-out and setting: the result for `Cn1c(=O)[nH]c(=O)c2c1nc1n2CCCN1Cc1ccccc1` reads 0.106% (inactive). On to `Cc1n[nH]c(=S)n1/N=C/c1ccc(-c2ccc(Cl)cc2)o1`, for which the activation is 1.87% (inactive). For the molecule `COC(=O)c1ccc(-n2c(C)cc(C(=O)COC(=O)C3=COCCO3)c2C)cc1`, the activation was -0.033% (inactive). Regarding `O=C(COC(=O)/C=C/c1cccc(C(F)(F)F)c1)NC(=O)NCc1ccco1`, the activation was -0.07% (inactive). For `CCCNC(=O)N1CC2(CN(S(C)(=O)=O)C2)c2c(n(C)c3cc(OC)ccc23)[C@H]1CO`, the activation was 0.016% (inactive). Same read-out and setting: next, `NS(=O)(=O)c1cccc(-n2cnnn2)c1`: 0.065% (inactive); `C=Cc1cnc([N+](=O)[O-])n1C`: -0.018% (inactive). The same measure, in the same setting: next, `COc1ccccc1CN1CC[C@H]2[C@H](CO)Nc3ccc(C#Cc4ccccc4)cc3[C@H]21`: 0% (inactive). As for `CCc1nc(C)cn1S(=O)(=O)c1ccc([N+](=O)[O-])cc1`, the activation is -0.053% (inactive). As for `CCOc1ccc(NC(=S)NC(C)c2cccs2)cc1` (stereo not drawn), the activation was 0.358% (inactive). Take `O=C(c1ccccc1Cl)N1CCSCCS1(=O)=O`: the activation is 0.035% (inactive).

`O=C(CNC(=O)c1ccccc1F)OCc1nc2ccccc2s1`: the activation was -0.127% (inactive). Still for that read-out and setting: the result for `Cc1cc2c(NC(=O)Nc3ccc(C(C)(C)C)cc3)cccc2nn1` reads 0.068% (inactive); that for `Cn1c(=O)c2[nH]c(-c3ccc(S(=O)(=O)O)cc3)nc2n(C)c1=O`, 0.001% (inactive). Turning to `C[C@@H]1COc2cccc(NCCO)c2S(=O)(=O)N1`, the activation is 0.028% (inactive).

As for `CCOC(=O)Cc1csc(NC(=O)Nc2ccc(F)cc2)n1`, the activation is 0.472% (inactive). Same read-out and setting: the result for `CNc1ncnc(Sc2ccc(Cl)cc2)c1[N+](=O)[O-]` reads 0.297% (inactive); that for `C/C=C/Cn1c(SCCCc2ccccc2)nc2c1c(=O)[nH]c(=O)n2C`, -0.024% (inactive); that for `CCOc1ccc(CCN2C(=S)N([C@@H](Cc3ccccc3)CN3CCC[C@@H]3CN3C(=S)NC[C@@H]3CC(C)C)C[C@@H]2Cc2ccccc2)cc1`, 0.011% (inactive). Same read-out and setting: next, `COc1cc(C(=O)NC(=S)Nc2cccc3nc(C)ccc23)cc(OC)c1OC`: 1% (inactive); `COc1ccc(-c2noc(-c3cccs3)n2)cc1OC`: 0.151% (inactive); `Cc1c(CN2CCCC(C(=O)c3cccc(OC(C)C)c3)C2)c(=O)n(-c2ccccc2)n1C` (stereo not drawn): -0.016% (inactive). `O=C1N[C@H](Cc2ccccc2)COCc2cn(nn2)CC[C@@H]1Cc1ccccc1`: the activation was 0.033% (inactive). `Cc1cc(=O)[nH]c(N/N=C/c2cc(C)n(CC(F)(F)F)c2C)n1`: the activation was 0.184% (inactive).

For the molecule `Cc1n[nH]c(=S)n(/N=C/c2cccc([N+](=O)[O-])c2)c1=O`, the activation is -0.091% (inactive). `Cc1ccc(C)c(OCCC(=O)Nc2cc(S(=O)(=O)N3CCCCC3)ccc2C)c1`: the activation was -0.008% (inactive).

Consider `CCN(CC)CCCN=Cc1c(O)n(-c2cccc(C)c2)c(=O)c2ccccc12`, for which the activation is -0.005% (inactive). The same measure, in the same setting: next, `COc1ccc(S(=O)(=O)Nc2ccc3c(c2)C(=O)N([C@@H](C)CO)C[C@H](C)[C@H](CN(C)C(=O)CCCN(C)C)OCCCC[C@H](C)O3)cc1`: 0.053% (inactive); `Cc1cccc(OCC(=O)N(C)c2c(N)n(Cc3ccccc3)c(=O)[nH]c2=O)c1C`: 0.012% (inactive).

Consider `N#CC(C#N)=C1C=CC=CN1/C(=C\c1ccco1)C(=O)c1ccc(Br)cc1`, for which the activation is 8.49% (inactive).

Regarding `Cc1cccc(CS(=O)(=O)Cc2ccc(C(=O)NCc3cccs3)o2)c1`, the activation is 0% (inactive).

As to `Nc1ccc(-c2nc3ccccc3[nH]2)cc1`, the activation is -0.039% (inactive).

Turning to `Cc1occc1C(=O)N/N=C/C(Br)=C\c1ccccc1`, the activation was -0.024% (inactive). Regarding `Oc1cccc(/C=N/NC(=S)NCCN2CCOCC2)c1O`, the activation is -0.016% (inactive). Regarding `COC(=O)c1cc(C(=O)N2CCN(c3ccccc3OC)CC2)cc([N+](=O)[O-])c1`, the activation is 0.681% (inactive).

For the molecule `CCOC(=O)C1(Cc2ccccc2C)CCCN(C(=O)CSC)C1` (stereo not drawn), the activation was -0.053% (inactive). As to `NNC(=O)c1sc(-c2ccc(Cl)cc2)cc1N`, the activation is 2.31% (inactive). The same measure, in the same setting: next, `COc1ccc(NC(=O)N(C)[C@H]2C[C@H]3c4[nH]c5ccc(-c6ccc(OC)cc6)cc5c4CCN3C(=O)[C@H]2[C@H](C)O)cc1`: 0.523% (inactive).

On to `COc1cc(CN2CCC(C(=O)NCC(C)(C)CN(C)C)CC2)ccc1OCc1ccccc1`, for which the activation was -0.029% (inactive). Same read-out and setting: next, `O=C1c2ccc3c4c(ccc(c24)C(=O)N1c1cccc(O)c1)C(=O)N(c1cccc(O)c1)C3=O`: -0.037% (inactive); `CC(C)C(NC(=O)c1ccc(F)cc1)C(=O)NCC1CCCO1` (stereo not drawn): 0.21% (inactive). As to `O=C(CCl)N=c1sccn1Cc1ccc(Cl)cc1Cl`, the activation is 0.591% (inactive). Regarding `N/C(=N\OC(=O)C12CC3CC(CC(C3)C1)C2)c1ccncc1`, the activation was 0.008% (inactive). Regarding `COc1cc(/C=N/Nc2nc(N3CCCC3)nc(N3CCCC3)n2)ccc1OCc1ccccc1F`, the activation is 0.149% (inactive).

As for `O=C1c2ccccc2C(=Cc2cccnc2)c2ccccc21`, the activation was 0.325% (inactive).

`CCC(=O)N1CC(=O)N2[C@@H](CO)[C@@H](c3ccc(-c4ccccc4F)cc3)[C@@H]2C1`: the activation was 0% (inactive).

As for `Clc1ccc(-c2nc(-c3ccncc3)no2)c(Cl)c1`, the activation is -0.034% (inactive).

Staying with this test, now noted: 68-5-11 mouse fibroblast XiGFP reporter, % GFP-positive imaging, 3 d; at 21 µM (top of the series); cells co-treated with 5-aza-dC sensitizer; scaled: neutral wells 0, ellipticine wells 100.
On to `Cc1cccc(CN(C)C[C@@H]2Oc3ncc(C#Cc4ccccc4)cc3C(=O)N([C@H](C)CO)C[C@@H]2C)c1`, for which the activation was -0.035% (inactive).

For the origin of these results see PubChem BioAssay AID743394 (Broad Institute, 2014).
